According to US7192924B2, “Corticotropin releasing factor 2 receptor agonists” (priority 2002, dated 2007):
pEC50: −log10 of the molar value. Peptide text beside a SMILES is read from it.

How the values were obtained:
CRF2R = molecular target: T1, CRF2R (Homo sapiens, UniProt Q13324); assay: CRF2R agonist activity (EC50, Emax), called comparative CRF binding; assay type: cell-based; conditions: read-out: CRF2R EC50
T1 sequence (Q13324 1-411): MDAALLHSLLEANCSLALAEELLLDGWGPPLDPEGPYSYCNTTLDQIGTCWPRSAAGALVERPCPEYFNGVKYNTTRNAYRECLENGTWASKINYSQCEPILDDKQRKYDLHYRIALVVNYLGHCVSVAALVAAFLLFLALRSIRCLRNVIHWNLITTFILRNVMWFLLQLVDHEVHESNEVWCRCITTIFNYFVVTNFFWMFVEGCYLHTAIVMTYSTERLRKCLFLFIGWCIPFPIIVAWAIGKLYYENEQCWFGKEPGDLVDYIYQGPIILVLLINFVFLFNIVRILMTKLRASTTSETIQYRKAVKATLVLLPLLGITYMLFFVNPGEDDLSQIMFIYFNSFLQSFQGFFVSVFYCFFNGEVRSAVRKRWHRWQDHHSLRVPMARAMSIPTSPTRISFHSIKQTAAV
Description: (§1) The pharmacological activity and selectivity of the peptides of present invention can be determined using published test procedures. See, e.g, U.S. patent application Ser. No. 09/799,978. Because CRF2R and CRF1R are homologous proteins, it is expected that a certain proportion of agonists for CRF2R will also function as agonists of CRF1R. As discussed above, activation of CRF1R induces activation of the HPA axis since increased corticosteroid production leads to skeletal muscle atrophy. In most cases in which an increase in muscle mass or function is desired, it is not desirable to activate the HPA axis.
(§2) Because it is desirable to discriminate binding between CRF2R, as compared with CRF1R, the assays described above may be conducted using a cell, or membrane from a cell, which expresses only CRF2R or the assays can be conducted with a recombinant source of CRF2R. Cells expressing both forms of CRFR may be modified using homologous recombination to inactivate or otherwise disable the CRF1R gene. Alternatively, if the source of CRFR contains more than one CRFR type, the background signal produced by the receptor which is not of interest must be subtracted from the signal obtained in the assay. […] Known antagonists of CRFRs include, but, are not limited to, antalarmin (CRF1R selective), antisauvagine-30 (CRF2R selective) and astressin (nonselective for CRF1R/CRF2R).
(§3) Cell-based assays include the steps of contacting cells which express CRF1R or CRF2R with a peptide of the present invention or control and measuring activation of the CRFR by measuring the expression or activity of components of the CRFR signal transduction pathways.
(§4) As described in the background section above, CRFRs appear to couple through several different pathways including Gαs, Gαq or Gαi, depending upon the cell type. It is thought that agonist activation of CRFR allows the receptor to signal via any of these pathways, provided that the necessary pathway components are present in the particular cell type. Thus, to assay a particular peptide of the present invention for CRFR activation, an assay can use any of the signal transduction pathways as the readout even if the relevant cell type for treatment, in vivo, couples CRFR to skeletal muscle atrophy via a different pathway. […] Assays for measuring activation of these signaling pathways are known in the art.
(§5) For example, after contact with a peptide of the present invention, lysates of the cells can be prepared and assayed for induction of cAMP. cAMP is induced in response to Gαs activation. Because Gαs is activated by receptors other than CRFR and because a test peptide may be exerting its effect through CRFRs or by another mechanism, two control comparisons are relevant for determining whether the peptide increases levels of cAMP via activation of a CRFR. One control compares the cAMP level of cells contacted with the peptide and the cAMP level of cells contacted with a control compound (i.e., the vehicle in which the peptide is dissolved).
(§6) In one example, cAMP induction is measured with the use of DNA constructs containing the cAMP responsive element linked to any of a variety of reporter genes can be introduced into cells expressing CRFRs. Such reporter genes include, but are not limited to, chloramphenicol acetyltransferase (CAT), luciferase, glucuronide synthetase, growth hormone, fluorescent proteins (e.g., Green Fluorescent Protein), or alkaline phosphatase. Following exposure of the cells to the peptide, the level of reporter gene expression can be quantitated to determine the peptide's ability to increase cAMP levels and thus determine the peptide's ability to activate the CRFR.
(§7) In addition to using cells expressing full length CRFRs, cells can be engineered which express CRFRs containing the ligand binding domain of the receptor coupled to, or physically modified to contain, reporter elements or to interact with signaling proteins.

CRF1R = molecular target: T2, CRF1R (Homo sapiens, UniProt P34998); assay: CRF1R agonist activity (EC50, Emax), called comparative CRF binding; assay type: cell-based; conditions: read-out: CRF1R EC50
T2 sequence (P34998 24-415): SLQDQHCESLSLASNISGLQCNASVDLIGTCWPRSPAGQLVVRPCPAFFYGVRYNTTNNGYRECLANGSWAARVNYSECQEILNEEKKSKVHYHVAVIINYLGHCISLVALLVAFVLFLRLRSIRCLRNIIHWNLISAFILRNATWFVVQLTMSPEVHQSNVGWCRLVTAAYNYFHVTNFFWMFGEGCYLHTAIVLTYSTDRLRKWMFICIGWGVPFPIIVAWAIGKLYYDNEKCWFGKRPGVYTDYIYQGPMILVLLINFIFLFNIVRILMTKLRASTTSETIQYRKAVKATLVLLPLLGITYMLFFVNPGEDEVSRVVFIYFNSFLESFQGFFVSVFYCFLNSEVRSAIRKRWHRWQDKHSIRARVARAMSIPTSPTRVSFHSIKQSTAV
Description: as §1, §2, §3, §4, §5, §6, §7

SMILES | pEC50 (CRF2R) | pEC50 (CRF1R)
CC[C@H](C)[C@H](N)C(=O)N[C@H](C(=O)N[C@@H](CC(C)C)C(=O)N[C@@H](CO)C(=O)N[C@@H](CC(C)C)C(=O)N[C@@H](CC(=O)O)C(=O)N[C@H](C(=O)N1CCC[C@H]1C(=O)N[C@H](C(=O)NCC(=O)N[C@@H](CC(C)C)C(=O)N[C@@H](CC(C)C)C(=O)N[C@@H](CCC(N)=O)C(=O)N[C@@H](CCC(=O)O)C(=O)N[C@@H](CC(C)C)C(=O)N[C@@H](CC(C)C)C(=O)N[C@@H](CCC(=O)O)C(=O)N[C@@H](CCSC)C(=O)N[C@@H](C)C(=O)N[C@@H](CCCNC(=N)N)C(=O)N[C@@H](C)C(=O)N[C@@H](CCC(=O)O)C(=O)N[C@@H](CCC(N)=O)C(=O)N[C@@H](CC(C)C)C(=O)N[C@@H](C)C(=O)N[C@@H](CCC(N)=O)C(=O)N[C@@H](CCC(N)=O)C(=O)N[C@@H](C)C(=O)N[C@@H](Cc1c[nH]cn1)C(=O)N[C@@H](CO)C(=O)N[C@@H](CC(N)=O)C(=O)N[C@@H](CCCNC(=N)N)C(=O)N[C@@H](CCCCN)C(=O)N[C@@H](CC(C)C)C(=O)N[C@@H](CCSC)C(=O)N[C@@H](CCC(=O)O)C(=O)N[C@H](C(=O)N[C@H](C(N)=O)[C@@H](C)CC)[C@@H](C)CC)[C@@H](C)CC)C(C)C)C(C)C [compound 1] (H-IVLSLDVPIGLLQELLEMARAEQLAQQAHSNRKLMEII-NH2; N-terminus assumed) | 7.50 | 6.11
CC[C@H](C)[C@H](N)C(=O)N[C@H](C(=O)N[C@@H](CC(C)C)C(=O)N[C@@H](CO)C(=O)N[C@@H](CC(C)C)C(=O)N[C@@H](CC(=O)O)C(=O)N[C@H](C(=O)N1CCC[C@H]1C(=O)N[C@H](C(=O)NCC(=O)N[C@@H](CC(C)C)C(=O)N[C@@H](CC(C)C)C(=O)N[C@@H](CCC(N)=O)C(=O)N[C@H](C(=O)N[C@@H](CC(C)C)C(=O)N[C@@H](CC(C)C)C(=O)N[C@@H](CCC(=O)O)C(=O)N[C@@H](CCC(N)=O)C(=O)N[C@H](C(=O)N[C@@H](CCCCN)C(=O)N[C@@H](C)C(=O)N[C@@H](CC(=O)O)C(=O)N[C@@H](C)C(=O)N[C@@H](C)C(=O)N[C@@H](CCCNC(=N)N)C(=O)N[C@@H](CCC(=O)O)C(=O)N[C@@H](CCC(N)=O)C(=O)N[C@@H](C)C(=O)N[C@H](C(=O)N[C@H](C(=O)N[C@@H](CC(N)=O)C(=O)N[C@@H](C)C(=O)N[C@@H](CCCNC(=N)N)C(=O)N[C@H](C(=O)N[C@@H](CC(C)C)C(=O)N[C@@H](C)C(=O)N[C@@H](CCCNC(=N)N)C(=O)N[C@H](C(N)=O)C(C)C)[C@@H](C)CC)[C@@H](C)O)[C@@H](C)O)[C@@H](C)O)[C@@H](C)CC)[C@@H](C)CC)C(C)C)C(C)C [compound 108] (H-IVLSLDVPIGLLQILLEQTKADAAREQATTNARILARV-NH2; N-terminus assumed) | 7.10 | < 7.00
CC[C@H](C)[C@H](N)C(=O)N[C@H](C(=O)N[C@@H](CC(C)C)C(=O)N[C@@H](CO)C(=O)N[C@@H](CC(C)C)C(=O)N[C@@H](CC(=O)O)C(=O)N[C@H](C(=O)N1CCC[C@H]1C(=O)N[C@H](C(=O)NCC(=O)N[C@@H](CC(C)C)C(=O)N[C@@H](CC(C)C)C(=O)N[C@@H](CCC(N)=O)C(=O)N[C@H](C(=O)N[C@@H](CC(C)C)C(=O)N[C@@H](CC(C)C)C(=O)N[C@@H](CCC(=O)O)C(=O)N[C@@H](CCC(N)=O)C(=O)N[C@@H](CCC(=O)O)C(=O)N[C@@H](CCCNC(=N)N)C(=O)N[C@@H](CCC(N)=O)C(=O)N[C@@H](CCCNC(=N)N)C(=O)N[C@@H](C)C(=O)N[C@@H](C)C(=O)N[C@@H](CCCNC(=N)N)C(=O)N[C@@H](CCC(=O)O)C(=O)N[C@@H](CCC(N)=O)C(=O)N[C@@H](C)C(=O)N[C@H](C(=O)N[C@H](C(=O)N[C@@H](CC(N)=O)C(=O)N[C@@H](C)C(=O)N[C@@H](CCCNC(=N)N)C(=O)N[C@H](C(=O)N[C@@H](CC(C)C)C(=O)N[C@@H](C)C(=O)N[C@@H](CCCNC(=N)N)C(=O)N[C@H](C(N)=O)C(C)C)[C@@H](C)CC)[C@@H](C)O)[C@@H](C)O)[C@@H](C)CC)[C@@H](C)CC)C(C)C)C(C)C [compound 111] (H-IVLSLDVPIGLLQILLEQERQRAAREQATTNARILARV-NH2; N-terminus assumed) | 7.96 | < 7.00
CC[C@H](C)[C@H](N)C(=O)N[C@H](C(=O)N[C@@H](CC(C)C)C(=O)N[C@@H](CO)C(=O)N[C@@H](CC(C)C)C(=O)N[C@@H](CC(=O)O)C(=O)N[C@H](C(=O)N1CCC[C@H]1C(=O)N[C@H](C(=O)NCC(=O)N[C@@H](CC(C)C)C(=O)N[C@@H](CC(C)C)C(=O)N[C@@H](CCC(N)=O)C(=O)N[C@H](C(=O)N[C@@H](CC(C)C)C(=O)N[C@@H](CC(C)C)C(=O)N[C@@H](CCC(=O)O)C(=O)N[C@@H](CCC(N)=O)C(=O)N[C@@H](C)C(=O)N[C@@H](CCCNC(=N)N)C(=O)N[C@@H](CCC(N)=O)C(=O)N[C@@H](CCCNC(=N)N)C(=O)N[C@@H](C)C(=O)N[C@@H](C)C(=O)N[C@@H](CCCNC(=N)N)C(=O)N[C@@H](CCC(=O)O)C(=O)N[C@@H](CCC(N)=O)C(=O)N[C@@H](C)C(=O)N[C@H](C(=O)N[C@H](C(=O)N[C@@H](CC(N)=O)C(=O)N[C@@H](C)C(=O)N[C@@H](CCCNC(=N)N)C(=O)N[C@H](C(=O)N[C@@H](CC(C)C)C(=O)N[C@@H](C)C(=O)N[C@@H](CCCNC(=N)N)C(=O)N[C@H](C(N)=O)C(C)C)[C@@H](C)CC)[C@@H](C)O)[C@@H](C)O)[C@@H](C)CC)[C@@H](C)CC)C(C)C)C(C)C [compound 114] (H-IVLSLDVPIGLLQILLEQARQRAAREQATTNARILARV-NH2; N-terminus assumed) | 8.47 | < 7.00
CC[C@H](C)[C@H](N)C(=O)N[C@H](C(=O)N[C@@H](CC(C)C)C(=O)N[C@@H](CO)C(=O)N[C@@H](CC(C)C)C(=O)N[C@@H](CC(=O)O)C(=O)N[C@H](C(=O)N1CCC[C@H]1C(=O)N[C@H](C(=O)NCC(=O)N[C@@H](CC(C)C)C(=O)N[C@@H](CC(C)C)C(=O)N[C@@H](CCC(N)=O)C(=O)N[C@H](C(=O)N[C@@H](CC(C)C)C(=O)N[C@@H](CC(C)C)C(=O)N[C@@H](CCC(=O)O)C(=O)N[C@@H](CCC(N)=O)C(=O)N[C@@H](CCC(=O)O)C(=O)N[C@@H](CCCCN)C(=O)N[C@@H](CCC(N)=O)C(=O)N[C@@H](CCCNC(=N)N)C(=O)N[C@@H](C)C(=O)N[C@@H](C)C(=O)N[C@@H](CCCNC(=N)N)C(=O)N[C@@H](CCC(=O)O)C(=O)N[C@@H](CCC(N)=O)C(=O)N[C@@H](C)C(=O)N[C@H](C(=O)N[C@H](C(=O)N[C@@H](CC(N)=O)C(=O)N[C@@H](C)C(=O)N[C@@H](CCCNC(=N)N)C(=O)N[C@H](C(=O)N[C@@H](CC(C)C)C(=O)N[C@@H](C)C(=O)N[C@@H](CCCNC(=N)N)C(=O)N[C@H](C(N)=O)C(C)C)[C@@H](C)CC)[C@@H](C)O)[C@@H](C)O)[C@@H](C)CC)[C@@H](C)CC)C(C)C)C(C)C [compound 115] (H-IVLSLDVPIGLLQILLEQEKQRAAREQATTNARILARV-NH2; N-terminus assumed) | 7.87 | < 7.00
